In patent US20160138077A1, “MONITORING AND ASSESSING DEACETYLASE ENZYME ACTIVITY” (THE GENERAL HOSPITAL CORPORATION, priority 2013, published 2016):

Assays:
Type in all cases: biochemical
[1] = target: T1, HDAC3 (Homo sapiens, UniProt O15379); assay: LCMS characterization of enzymatic deacetylation by HDAC3, incl. cleavage over time (kobs, T1/2); conditions: for % HP-1 to DHP-1: 5 μM probe, 12 hours at 37° C.
T1 construct: purchased Cayman Chemicals
Procedure: The enzymatic cleavage of HP-1 and HP-2 was analyzed by performing LCMS assays with HeLa nuclear extract (AnaSpec), HeLa whole cell lysate (Santa Cruz Inc.), and the following purified HDAC isoforms: 1, 2, 3, 6 and 8 (HDAC1, 3 and 8 from Cayman Chemicals and HDAC2 and 6 provided by Dr. Stephen Haggarty). Solutions containing (i) vehicle with DMSO in HDAC buffer, (ii) 5 μM probe in HDAC buffer, (iii) 5 μM probe and HDAC enzyme/HeLa nuclear extract/HeLa whole cell lysate in HDAC buffer, or (iv) 5 μM probe and HDAC enzyme/HeLa nuclear extract/HeLa whole cell lysate pre-incubated with 10 μM SAHA (Provided by Dr. Stephen Haggarty) in HDAC buffer were incubated for 12 hours at 37° C. Following incubation, a 20 μL aliquot of supernatant from each sample was analyzed by LCMS. Deacetylation of HP-1 and 2 was confirmed by detection of the (M+H)^+.ion following positive electrospray ionization. For HP-1, the (M+H)^+ ion for the corresponding aldehyde (8, DHP-1) was detected, which formed following reaction of the initial imine deacetylation product with water. For HP-2, the […]. ion for the corresponding amine (6, DHP-2) was identified. The peak area for each detected compound was measured to determine the % deacetylation of each probe. All assay samples were analyzed in triplicate. […]
The rate of cleavage of HP-1 by purified HDAC3 was analyzed by performing a LCMS assay. […] Following incubation, a 20 μL aliquot of supernatant from each sample was analyzed by LCMS at t=0, 1, 2, 4, 8, and 12 hours. […] For HP-1, the (M+H)^+ ion for the corresponding aldehyde (8, DHP-1) was detected, which formed following reaction of the initial imine deacetylation product with water. The peak area for each detected compound was measured to determine the % deacetylation of each probe. The observed rate constant was determined using Graphpad by plotting Ln(DHP-1 peak area) versus time. […] All assay samples were analyzed in triplicate. […]
LCMS characterization of HDAC enzymatic action on HP-1 and HP-2. […] Following incubation, an aliquot of supernatant from each sample was analyzed by LCMS. […]

[2] = target: T2, Cathepsin B (Homo sapiens, UniProt P07858); assay: LCMS assay of protease enzymatic action on HP-1; conditions: −SAHA, 5 μM HP-1, 12 hours at 37° C.
T2 construct: purchased EMD Millipore
Procedure: (§1) The enzymatic cleavage of HP-1 was analyzed by performing LCMS assays with sirtuin 1 and 3 (Cayman Chemicals) and the proteases chymotrypsin (Sigma-Aldrich), cathepsin (EMD Millipore), and pepsin* (Sigma-Aldrich). Solutions containing (i) vehicle with DMSO in HDAC buffer, (ii) 5 μM HP-1 in HDAC buffer, and (iii) 5 μM HP-1 and the enzyme in HDAC buffer were incubated for 12 hours at 37° C. Following incubation, a 20 μL aliquot of supernatant from each sample was analyzed by LCMS. Deacetylation of HP-1 was investigated by screening for the DHP-1 (M+H)^+ ion following positive electrospray ionization. All assay samples were analyzed in triplicate. […]
(§2) HP-1 was not altered by sirtuins 1 and 3 or the proteases chymotrypsin, cathepsin and pepsin, as determined by LCMS. […] For Cathepsin B, the cleavage of the enzyme substrate, z-RR-pNA (Santa Cruz Biotechnology, Dallas, Tex.) was monitored using a Wallac EnVision 2103 Multilabel fluorescence plate reader (PerkinElmer, Waltham, Mass.) with a 405 nm excitation filter, a 406 nm emission filter, and a gain of 150. The cleavage of the pepsin substrate, Ac-Phe-Tyr-OH (Chem-Impex Inc.), was monitored by LCMS at pH 4. […]

[3] = target: T3, Chymotrypsin (Bos taurus, UniProt P00766); assay: LCMS assay of protease enzymatic action on HP-1; conditions: −SAHA, 5 μM HP-1, 12 hours at 37° C.
T3 construct: purchased Sigma-Aldrich
Procedure: as §1, §2

[4] = target: T4, Pepsin (Sus scrofa, UniProt P00791); assay: LCMS assay of protease enzymatic action on HP-1 (HDAC buffer at pH 4); conditions: −SAHA, 5 μM HP-1, 12 hours at 37° C.
T4 construct: purchased Sigma-Aldrich
Procedure: as §1, §2

T1 sequence (O15379 whole entry): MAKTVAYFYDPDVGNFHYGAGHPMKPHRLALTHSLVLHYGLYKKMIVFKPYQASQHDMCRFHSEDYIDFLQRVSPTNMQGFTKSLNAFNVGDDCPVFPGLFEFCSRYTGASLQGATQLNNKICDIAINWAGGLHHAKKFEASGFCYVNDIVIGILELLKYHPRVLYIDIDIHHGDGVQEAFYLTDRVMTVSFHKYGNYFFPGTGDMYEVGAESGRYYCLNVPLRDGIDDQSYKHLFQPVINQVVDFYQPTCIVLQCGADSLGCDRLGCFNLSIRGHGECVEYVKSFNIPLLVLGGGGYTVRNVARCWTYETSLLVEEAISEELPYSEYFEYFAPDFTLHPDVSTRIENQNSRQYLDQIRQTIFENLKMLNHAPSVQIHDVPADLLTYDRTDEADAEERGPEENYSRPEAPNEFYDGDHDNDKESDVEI
T1 sequence (Q9Y618 395-489 partner limits assumed): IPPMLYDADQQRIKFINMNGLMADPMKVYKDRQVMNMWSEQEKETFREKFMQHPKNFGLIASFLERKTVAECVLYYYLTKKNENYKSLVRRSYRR
T4 sequence (P00791 60-385): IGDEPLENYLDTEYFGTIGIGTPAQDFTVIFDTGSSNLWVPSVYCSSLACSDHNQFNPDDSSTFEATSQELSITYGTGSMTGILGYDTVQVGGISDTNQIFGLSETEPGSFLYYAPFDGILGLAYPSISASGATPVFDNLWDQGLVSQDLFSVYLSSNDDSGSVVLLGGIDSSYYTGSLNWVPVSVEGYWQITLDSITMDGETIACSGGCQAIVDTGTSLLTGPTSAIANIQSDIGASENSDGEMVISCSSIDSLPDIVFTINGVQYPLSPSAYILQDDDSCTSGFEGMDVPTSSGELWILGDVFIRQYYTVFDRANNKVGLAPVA

With `CC(=O)NC=CCCCCNC(=O)CCCCCNc1ccc([N+](=O)[O-])c2nonc12` [HP-1] the “kobs with HDAC3 (conversion of HP-1 to DHP-1)” value ([1]; 5 μM HP-1, HDAC3, 37° C., t=0-12 hours, Ln(DHP-1 peak area) versus time) was 3.2e-05 ± 6e-06 s⁻¹, the “% HP-1 to DHP-1” value ([1]; HDAC3, +SAHA (10 μM)) was 0% and the “% HP-1 to DHP-1” value ([1]; HDAC3, −SAHA, maximum detected conversion) was 93%. For the same molecule, the “% HP-1 to DHP-1” value [2] was 0%, the “% HP-1 to DHP-1” value [3] was 0% and the “% HP-1 to DHP-1” value [4] was 0%.
